One assay addresses NS3 (Hepatitis C virus, UniProt A3EZJ3). The assay is described as follows: Inhibitory potency against HCV NS3 protease. Also noted: species or system Hepacivirus hominis.
The target of assay [1] is T1, Neutrophil elastase (Homo sapiens) (UniProt P08246).
T1 sequence (whole entry): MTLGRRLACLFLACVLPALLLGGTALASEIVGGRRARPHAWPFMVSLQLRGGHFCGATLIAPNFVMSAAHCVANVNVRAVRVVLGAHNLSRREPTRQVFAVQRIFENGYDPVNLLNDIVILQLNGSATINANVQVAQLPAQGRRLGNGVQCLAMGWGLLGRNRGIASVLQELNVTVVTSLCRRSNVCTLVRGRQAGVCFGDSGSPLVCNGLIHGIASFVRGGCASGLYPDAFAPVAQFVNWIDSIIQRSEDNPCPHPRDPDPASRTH
The assay can be described thus: Selectivity for human neutrophil elastase.

The next assay deals with Huh-7. The assay is described as follows: Cytotoxic concentration against Huh-7 liver cell line. In kind it is functional. The settings on record: Homo sapiens.
A further assay has as its system Cell line. The assay can be described thus: inhibitory concentration in luciferase based replicon assay. In kind it is functional. The settings on record: Homo sapiens.

NS3, sequence (A3EZJ3 whole entry): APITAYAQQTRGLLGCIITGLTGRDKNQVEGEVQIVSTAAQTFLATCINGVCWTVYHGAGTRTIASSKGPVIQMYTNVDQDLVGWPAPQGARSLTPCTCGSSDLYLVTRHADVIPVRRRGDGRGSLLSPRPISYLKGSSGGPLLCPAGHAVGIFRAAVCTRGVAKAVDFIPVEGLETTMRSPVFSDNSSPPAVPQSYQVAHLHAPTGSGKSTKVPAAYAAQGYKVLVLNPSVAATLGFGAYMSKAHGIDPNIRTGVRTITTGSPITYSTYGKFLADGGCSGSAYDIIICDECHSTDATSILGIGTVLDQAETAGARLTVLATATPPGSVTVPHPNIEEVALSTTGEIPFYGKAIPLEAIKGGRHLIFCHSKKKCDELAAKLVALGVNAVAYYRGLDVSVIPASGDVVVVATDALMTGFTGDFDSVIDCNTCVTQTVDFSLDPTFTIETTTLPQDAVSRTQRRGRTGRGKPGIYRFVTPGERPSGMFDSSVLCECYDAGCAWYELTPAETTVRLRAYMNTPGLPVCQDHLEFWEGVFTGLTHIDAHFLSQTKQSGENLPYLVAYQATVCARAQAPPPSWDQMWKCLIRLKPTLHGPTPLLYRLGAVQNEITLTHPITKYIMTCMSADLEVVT

`CCCC(NC(=O)[C@@H]1CC(OC(=O)N2CCc3ccccc3C2)CN1C(=O)[C@@H](NC(=O)[C@@H](NC(=O)CCCCC(=O)OC)C(C)C)C(C)C)C(=O)C(=O)NC1CC1` (some centres undefined) came in with a Ki on NS3 of 271 nM.
`CCCC(NC(=O)[C@@H]1C2CCCC2CN1C(=O)[C@@H](NC(=O)[C@@H](NC(=O)CCCCc1nnn[nH]1)C(C)C)C(C)C)C(=O)C(=O)N[C@@H](C)c1ccccc1` (stereo in doubt; 13) gave a Ki on NS3 of 27 nM.
The compound `CCCC(NC(=O)[C@@H]1C2CCCC2CN1C(=O)[C@@H](NC(=O)[C@@H](NC(=O)CCCCc1nnn[nH]1)C(C)C)C(C)C)C(=O)C(=O)Nc1ccccc1` (some centres undefined) displayed a Ki at NS3 of 22 nM. In assay [1], this compound returned a Selectivity of 1180. The CC50 with Huh-7 was > 10000 nM.
On NS3, `CCC[C@H](NC(=O)[C@@H]1C2CCCC2CN1C(=O)[C@@H](NC(=O)[C@@H](NC(=O)CCCCc1nn[nH]n1)C(C)C)C(C)C)C(=O)C(=O)NC1CC1` (some centres undefined) registered a Ki of 170 nM.
`CCC[C@H](NC(=O)[C@@H]1C2CCCC2CN1C(=O)[C@@H](NC(=O)[C@@H](NC(=O)CCCCc1nnn[nH]1)C(C)C)C(C)C)C(=O)C(=O)NC1CC1` (some centres undefined): the Selectivity in assay [1] stood at 7. The IC50 in the assay on Cell line is > 50000 nM. The CC50 with Huh-7 is > 50000 nM.
On NS3, `CCCC(NC(=O)[C@@H]1C2CCCC2CN1C(=O)[C@@H](NC(=O)[C@@H](NC(=O)Cc1nn[nH]n1)C1CCCCC1)C(C)(C)C)C(=O)C(=O)NC1CC1` (some centres undefined) gave a Ki of 30 nM. Also, the IC50 in the assay with Cell line was > 50000 nM. For the same compound, the half-maximal cytotoxic concentration (CC50) in the assay on Huh-7 is > 50000 nM.
At NS3, `CCC[C@H](NC(=O)[C@@H]1C2CCCC2CN1C(=O)[C@@H](NC(=O)[C@@H](NC(=O)Cc1nn[nH]n1)[C@@H](C)CC)C(C)(C)C)C(=O)C(=O)NC1CC1` (some centres undefined) displayed a Ki of 3110 nM. Also, in the assay on Cell line, the IC50 is > 50000 nM. In the assay with Huh-7, the CC50 was > 50000 nM.
Turning to `CCC[C@H](NC(=O)[C@@H]1C2CCCC2CN1C(=O)[C@@H](NC(=O)[C@@H](NC(=O)c1cnccn1)C(C)C)C(C)C)C(=O)C(=O)NC1CC1` (some centres undefined), at NS3, the Ki is 123 nM. In the assay with Cell line, the IC50 amounted to 11600 nM. In addition, the CC50 with Huh-7 is > 50000 nM.
On NS3, `CCC(C=O)NC(=O)[C@@H]1CC(OC(=O)c2ccc3ccccc3c2)CN1C(=O)[C@@H](NC(=O)[C@@H](NC(=O)CCCCC(=O)O)C(C)C)C(C)C` (some centres undefined) gave a Ki of 110 nM.
Compound `CCCC(NC(=O)[C@@H]1CC(OC(=O)N2CCc3ccccc3C2)CN1C(=O)[C@@H](NC(=O)[C@@H](NC(=O)CCCCC(=O)O)C(C)C)C(C)C)C(=O)C(=O)NC1CC1` (some centres undefined) had a Ki at NS3 of 65 nM. Moreover, the IC50 in the assay with Cell line was > 50000 nM. Also, the CC50 in the assay with Huh-7 was > 50000 nM.
As for `CCC[C@H](NC(=O)[C@@H]1C2CCCC2CN1C(=O)[C@@H](NC(=O)[C@@H](NC(=O)CCCCc1nn[nH]n1)C(C)C)C(C)C)C(=O)C(=O)NC(=O)CN` (some centres undefined), the Ki at NS3 was 82 nM.
`CCCC(NC(=O)[C@@H]1C2CCCC2CN1C(=O)[C@@H](NC(=O)[C@@H](NC(=O)CCCCc1nnn[nH]1)C(C)C)C(C)C)C(=O)C(=O)NC(C)CC` (some centres undefined) had a Ki at NS3 of 248 nM. In addition, in the assay on Cell line, the IC50 is > 50000 nM. Further, the CC50 in the assay on Huh-7 was > 50000 nM.
In turn, `CCC[C@H](NC(=O)[C@@H]1C2CCCC2CN1C(=O)[C@@H](NC(=O)[C@@H](NC(=O)Cc1nn[nH]n1)C(C)C)C(C)(C)C)C(=O)C(=O)NC1CC1` (some centres undefined) showed a Ki on NS3 of 808 nM.
On NS3, `CCCC(NC(=O)[C@@H]1CC(OC(=O)N2CCc3ccccc3C2)CN1C(=O)[C@@H](NC(=O)[C@@H](NC(=O)CCCCC(=O)NC)C(C)C)C(C)C)C(=O)C(=O)NC1CC1` (some centres undefined) had a Ki of 193 nM. The Selectivity in assay [1] was 4. Also, the CC50 in the assay on Huh-7 is > 10000 nM.
On NS3, `CCCC(NC(=O)[C@@H]1C2CCCC2CN1C(=O)[C@@H](NC(=O)[C@@H](NC(=O)CCCCc1nnn[nH]1)C(C)C)C(C)C)C(=O)C(=O)N[C@@H](C)c1ccncc1` (some centres undefined) had a Ki of 112 nM.
`CCCC(NC(=O)[C@@H]1C2CCCC2CN1C(=O)[C@@H](NC(=O)[C@@H](NC(=O)CCCCc1nnn[nH]1)C(C)C)C(C)C)C(=O)C(=O)N[C@@H](C)c1ccccc1` (stereo in doubt; 12) gave a Ki at NS3 of 31 nM. Also, in the assay on Cell line, the IC50 was > 50000 nM. Further, the CC50 in the assay with Huh-7 was > 50000 nM.

Source of the values: ChEMBL document CHEMBL1137169, “P4 cap modified tetrapeptidyl alpha-ketoamides as potent HCV NS3 protease inhibitors” (Bioorg Med Chem Lett, 2004).
